Reference: PubChem BioAssay AID1259407 (Chemical Carcinogenesis Research Information System (CCRIS), 2018)
Active and inactive are the calls of the source. No rule for the calls is given here.

Tested on: CCRIS mutagenicity, Ames/micronucleus/aberration tests
Experiment: CCRIS mutagenicity studies
[1] = Test System: AMES SALMONELLA TYPHIMURIUM, Strain/Indicator: TA98, Metabolic Activation: HAMSTER, LIVER, S-9, AROCLOR 1254 (10%), Method: PREINCUBATION
[2] = Test System: AMES SALMONELLA TYPHIMURIUM, Strain/Indicator: TA98, Metabolic Activation: NONE, Method: PREINCUBATION
[3] = Test System: AMES SALMONELLA TYPHIMURIUM, Strain/Indicator: TA98, Metabolic Activation: RAT, LIVER, S-9, AROCLOR 1254 (10%), Method: PREINCUBATION
[4] = Test System: AMES SALMONELLA TYPHIMURIUM, Strain/Indicator: TA100, Metabolic Activation: HAMSTER, LIVER, S-9, AROCLOR 1254 (10%), Method: PREINCUBATION
[5] = Test System: AMES SALMONELLA TYPHIMURIUM, Strain/Indicator: TA100, Metabolic Activation: NONE, Method: PREINCUBATION
[6] = Test System: AMES SALMONELLA TYPHIMURIUM, Strain/Indicator: TA100, Metabolic Activation: RAT, LIVER, S-9, AROCLOR 1254 (10%), Method: PREINCUBATION
[7] = Test System: AMES SALMONELLA TYPHIMURIUM, Strain/Indicator: TA1535, Metabolic Activation: HAMSTER, LIVER, S-9, AROCLOR 1254 (10%), Method: PREINCUBATION
[8] = Test System: AMES SALMONELLA TYPHIMURIUM, Strain/Indicator: TA1535, Metabolic Activation: NONE, Method: PREINCUBATION
[9] = Test System: AMES SALMONELLA TYPHIMURIUM, Strain/Indicator: TA1535, Metabolic Activation: RAT, LIVER, S-9, AROCLOR 1254 (10%), Method: PREINCUBATION
[10] = Test System: AMES SALMONELLA TYPHIMURIUM, Strain/Indicator: TA100, Metabolic Activation: NONE, Method: STANDARD PLATE

## Cc1ccc(C#N)cc1
Test System: AMES SALMONELLA TYPHIMURIUM, Strain/Indicator: TA97, Metabolic Activation: HAMSTER, LIVER, S-9, AROCLOR 1254 (10%), Method: PREINCUBATION
  mutagenic call: inactive; negative
Test System: AMES SALMONELLA TYPHIMURIUM, Strain/Indicator: TA97, Metabolic Activation: HAMSTER, LIVER, S-9, AROCLOR 1254 (30%), Method: PREINCUBATION
  mutagenic call: inactive; negative
Test System: AMES SALMONELLA TYPHIMURIUM, Strain/Indicator: TA97, Metabolic Activation: NONE, Method: PREINCUBATION
  mutagenic call: inactive; negative
Test System: AMES SALMONELLA TYPHIMURIUM, Strain/Indicator: TA97, Metabolic Activation: RAT, LIVER, S-9, AROCLOR 1254 (10%), Method: PREINCUBATION
  mutagenic call: inactive; negative
Test System: AMES SALMONELLA TYPHIMURIUM, Strain/Indicator: TA97, Metabolic Activation: RAT, LIVER, S-9, AROCLOR 1254 (30%), Method: PREINCUBATION
  mutagenic call: inactive; negative
[1]
  mutagenic call: inactive; negative
Test System: AMES SALMONELLA TYPHIMURIUM, Strain/Indicator: TA98, Metabolic Activation: HAMSTER, LIVER, S-9, AROCLOR 1254 (30%), Method: PREINCUBATION
  mutagenic call: inactive; negative
[2]
  mutagenic call: inactive; negative
[3]
  mutagenic call: inactive; negative
Test System: AMES SALMONELLA TYPHIMURIUM, Strain/Indicator: TA98, Metabolic Activation: RAT, LIVER, S-9, AROCLOR 1254 (30%), Method: PREINCUBATION
  mutagenic call: inactive; negative
[4]
  mutagenic call: inactive; negative
Test System: AMES SALMONELLA TYPHIMURIUM, Strain/Indicator: TA100, Metabolic Activation: HAMSTER, LIVER, S-9, AROCLOR 1254 (30%), Method: PREINCUBATION
  mutagenic call: inactive; negative
[5]
  mutagenic call: inactive; negative
[6]
  mutagenic call: inactive; negative
Test System: AMES SALMONELLA TYPHIMURIUM, Strain/Indicator: TA100, Metabolic Activation: RAT, LIVER, S-9, AROCLOR 1254 (30%), Method: PREINCUBATION
  mutagenic call: inactive; negative
[7]
  mutagenic call: inactive; negative
Test System: AMES SALMONELLA TYPHIMURIUM, Strain/Indicator: TA1535, Metabolic Activation: HAMSTER, LIVER, S-9, AROCLOR 1254 (30%), Method: PREINCUBATION
  mutagenic call: inactive; negative
[8]
  mutagenic call: inactive; negative
[9]
  mutagenic call: inactive; negative
Test System: AMES SALMONELLA TYPHIMURIUM, Strain/Indicator: TA1535, Metabolic Activation: RAT, LIVER, S-9, AROCLOR 1254 (30%), Method: PREINCUBATION
  mutagenic call: inactive; negative

## O/C=C/Cc1ccc2c(c1)OCO2
Test System: UDS HUMAN FIBROBLASTS, Strain/Indicator: THY INCORP (NON-S-PHASE), Metabolic Activation: NONE, Method: AUTORADIOGRAPHY
  mutagenic call: active; positive

## C=C1/C(=C\C=C2/CCC[C@]3(C)[C@@H]([C@H](C)CCCC(C)(C)O)CC[C@@H]23)C[C@@H](O)C[C@@H]1O
End Point: IN VIVO CHROMOSOMAL ABERRATIONS, Test System: BONE MARROW CELLS, Species: RAT, Strain/Sex: WISTAR, Route: ORAL
  mutagenic call: inactive; negative

## C=C(C=O)CC
[5]
  mutagenic call: active; positive
Test System: AMES SALMONELLA TYPHIMURIUM, Strain/Indicator: TA100, Metabolic Activation: RAT LIVER S-9, AROCLOR 1254, Method: PREINCUBATION
  mutagenic call: active; positive
Test System: AMES SALMONELLA TYPHIMURIUM, Strain/Indicator: TA100, Metabolic Activation: RAT, LIVER, S-9, AROCLOR 1254, Method: PREINCUBATION
  mutagenic call: active; positive

## Nc1c(O)cccc1[N+](=O)[O-]
Test System: AMES SALMONELLA TYPHIMURIUM, Strain/Indicator: TA98, Metabolic Activation: NONE, Method: STANDARD PLATE
  mutagenic call: inactive; negative
Test System: AMES SALMONELLA TYPHIMURIUM, Strain/Indicator: TA98, Metabolic Activation: RAT, LIVER, S-9, AROCLOR 1254, Method: STANDARD PLATE
  mutagenic call: inactive; negative
[10]
  mutagenic call: inactive; negative
Test System: AMES SALMONELLA TYPHIMURIUM, Strain/Indicator: TA100, Metabolic Activation: RAT, LIVER, S-9, AROCLOR 1254, Method: STANDARD PLATE
  mutagenic call: inactive; negative
Test System: AMES SALMONELLA TYPHIMURIUM, Strain/Indicator: TA1535, Metabolic Activation: NONE, Method: STANDARD PLATE
  mutagenic call: inactive; negative
Test System: AMES SALMONELLA TYPHIMURIUM, Strain/Indicator: TA1535, Metabolic Activation: RAT, LIVER, S-9, AROCLOR 1254, Method: STANDARD PLATE
  mutagenic call: inactive; negative
Test System: AMES SALMONELLA TYPHIMURIUM, Strain/Indicator: TA1537, Metabolic Activation: NONE, Method: STANDARD PLATE
  mutagenic call: inactive; negative
Test System: AMES SALMONELLA TYPHIMURIUM, Strain/Indicator: TA1537, Metabolic Activation: RAT, LIVER, S-9, AROCLOR 1254, Method: STANDARD PLATE
  mutagenic call: inactive; negative
Test System: AMES SALMONELLA TYPHIMURIUM, Strain/Indicator: TA1538, Metabolic Activation: NONE, Method: STANDARD PLATE
  mutagenic call: inactive; negative
Test System: AMES SALMONELLA TYPHIMURIUM, Strain/Indicator: TA1538, Metabolic Activation: RAT, LIVER, S-9, AROCLOR 1254, Method: STANDARD PLATE
  mutagenic call: inactive; negative

## O=c1nc(O)n(Cl)c(=O)n1Cl
[1]
  mutagenic call: inactive; negative
[2]
  mutagenic call: inactive; negative
[3]
  mutagenic call: inactive; negative
[4]
  mutagenic call: inactive; negative
[5]
  mutagenic call: inactive; negative
[6]
  mutagenic call: inactive; negative
[7]
  mutagenic call: inactive; negative
[8]
  mutagenic call: inactive; negative
[9]
  mutagenic call: inactive; negative
Test System: AMES SALMONELLA TYPHIMURIUM, Strain/Indicator: TA1537, Metabolic Activation: HAMSTER, LIVER, S-9, AROCLOR 1254 (10%), Method: PREINCUBATION
  mutagenic call: inactive; negative
Test System: AMES SALMONELLA TYPHIMURIUM, Strain/Indicator: TA1537, Metabolic Activation: NONE, Method: PREINCUBATION
  mutagenic call: inactive; negative
Test System: AMES SALMONELLA TYPHIMURIUM, Strain/Indicator: TA1537, Metabolic Activation: RAT, LIVER, S-9, AROCLOR 1254 (10%), Method: PREINCUBATION
  mutagenic call: inactive; negative

## O[C@H]1C=Cc2ncccc2[C@@H]1O
[10]
  mutagenic call: inactive; negative
Test System: AMES SALMONELLA TYPHIMURIUM, Strain/Indicator: TA100, Metabolic Activation: RAT, LIVER, S-9, AROCLOR 1254 (10 OR 20%), Method: STANDARD PLATE
  mutagenic call: inactive; negative
